US5141926A, “Erythromycin derivatives” (Abbott Laboratories, priority 1990, dated 1992)
≈ marks a conversion by molar mass, not a printed value. Like-named read-outs stand apart in the source and are kept apart here. One block for each compound: values may come before it.

Legend:
[1] = system: Staphylococcus aureus CMX 553; experiment: Agar plate dilution MIC; type: cell-based
Description: (§1) 6-Deoxyerythromycins A, B and C and 6-deoxy-15-norerythromycin B were tested for antibacterial activity using a standard agar plate dilution method in brain heart infusion broth. Erythromycin A was utilized as a control.

[2] = system: Micrococcus luteus ATCC 9341; experiment: Agar plate dilution MIC; type: cell-based
Description: as §1

[3] = system: Enterococcus faecium ATCC 8043; experiment: Agar plate dilution MIC; type: cell-based
Description: as §1

[4] = system: Staphylococcus aureus NCTC 10649; experiment: Agar plate dilution MIC; type: cell-based
Description: as §1

[5] = system: Streptococcus agalactiae CMX 508; experiment: Agar plate dilution MIC; type: cell-based
Description: as §1

Escherichia coli JUHL = experiment: Agar plate dilution MIC; type: cell-based
Description: as §1

Eschericha coli SS = experiment: Agar plate dilution MIC; type: cell-based; settings: brain heart infusion broth
Description: as §1

[6] = system: Staphylococcus aureus ATCC 6538P; experiment: Agar plate dilution MIC; type: cell-based; settings: ATCC6538P
Description: as §1

[7] = system: Staphylococcus epidermis 3519; experiment: Agar plate dilution MIC; type: cell-based; settings: brain heart infusion broth
Description: as §1

[8] = system: Streptococcus pyogenes EES61; experiment: Agar plate dilution MIC; type: cell-based
Description: as §1

[9] = system: Staphylococcus aureus 10649; experiment: Acute mouse protection test; type: in vivo, female CF-1 mice; settings: read-out: ED50 (Dose Providing 50% Survival)
Description: (§2) The in vivo activity of 6-deoxyerythromycin A was evaluated using the acute mouse protection test. Mouse mortality was used to calcualte an ED50 value, i.e., the dose of drug required to protect 50% of the test animals against death due to inoculum challenge.
(§3) The acute mouse protection test was conducted as described by Fernandes, et al. (Antimicrob. Agents Chemother. 29:201-208(1986)) on female CF-1 mice weighing 20-25 grams. The mice were injected intraperitoneally with bacterial suspensions at a concentration 100 times that producing an LD50 response. 6-Deoxyerythromycin A or erythromycin A were administered orally at 1 and 5 hours post-infection. The median effective doses for the cumulative mortalities on the sixth day after infection were calculated using a trimmed logit analysis (Hamilton, et. al., Environ Sci. Technol. 11:714-719 (1977)).

[10] = system: Streptococcus pyogenes C203; experiment: Acute mouse protection test; type: in vivo, female CF-1 mice; settings: read-out: ED50 (Dose Providing 50% Survival)
Description: as §2, §3

[11] = system: Streptococcus pneumoniae 6303; experiment: Acute mouse protection test; type: in vivo, female CF-1 mice; settings: read-out: ED50 (Dose Providing 50% Survival)
Description: as §2, §3

physchem = settings: citric acid solution, pH 2.2
Description: The relative acid stability of one of the compounds of the present invention was compared to that of erythromycin A. 11.8 mg of 6-deoxyerythromycin A was suspended in citric acid solution (pH 2.2) and allowed to remain at 37° C. for 8 hours. Aliquots were removed at 2, 5, 10, and 20 minutes and at 1, 2, 3, 4, 5, 6 and 8 hours. Degradation was quenced by adjusting each aliquot to pH 9.6 with 7.5 N NH4 OH, followed by extraction with methylene chloride.
10.5 mg of erythromycin A was identically suspended in critic acid solution (pH 2.0) and allowed to remain at 37° C. for 10 minutes. Aliquots were removed at 2, 5 and 10 minutes. Degradation was quenched by adjusting each aliquot to pH 9.6 with 7.5 N NH4 OH, followed by extraction with methylene chloride.

[12] = system: murine infections of Staphylococci and Streptococci; experiment: Acute mouse protection test, overall result; type: in vivo, female CF-1 mice; settings: orally administered
Description: as §2, §3

[13] = CMX553, Table 5, brain heart infusion broth, read-out: MIC value
[14] = ATCC9341, Table 5, brain heart infusion broth, read-out: MIC value
[15] = ATCC8043, Table 5, brain heart infusion broth, read-out: MIC value
[16] = NCTC10649, Table 5, brain heart infusion broth, read-out: MIC value
[17] = CMX508, Table 5, brain heart infusion broth, read-out: MIC value
[18] = Table 5, brain heart infusion broth
[19] = Table 5, brain heart infusion broth, read-out: MIC value
[20] = Staphylococcus, 3519, Table 5, read-out: MIC value
[21] = EES61, Table 5, brain heart infusion broth, read-out: MIC value
[22] = CMX553, Table 4, brain heart infusion broth, read-out: MIC value
[23] = ATCC9341, Table 4, brain heart infusion broth, read-out: MIC value
[24] = ATCC8043, Table 4, brain heart infusion broth, read-out: MIC value
[25] = NCTC10649, Table 4, brain heart infusion broth, read-out: MIC value
[26] = CMX508, Table 4, brain heart infusion broth, read-out: MIC value
[27] = Table 4, brain heart infusion broth
[28] = Table 4, brain heart infusion broth, read-out: MIC value
[29] = Staphylococcus, 3519, Table 4, read-out: MIC value
[30] = EES61, Table 4, brain heart infusion broth, read-out: MIC value

Compound: CO[C@]1(C)C[C@H](O[C@H]2[C@H](C)[C@@H](O[C@@H]3O[C@H](C)C[C@H](N(C)C)[C@H]3O)[C@@H](C)C[C@@H](C)C(=O)[C@H](C)[C@@H](O)[C@@H](C)[C@@H](C)OC(=O)[C@@H]2C)O[C@@H](C)[C@@H]1O [6-Deoxy-15-norerythromycin B]
- MIC [1, 13]: 2 µg/mL (≈ 2.91 µM)
- MIC [2, 14]: 0.25 µg/mL (≈ 0.363 µM)
- MIC [3, 15]: 2 µg/mL (≈ 2.91 µM)
- MIC [4, 16]: 2 µg/mL (≈ 2.91 µM)
- MIC [5, 17]: 0.5 µg/mL (≈ 0.727 µM)
- MIC (Escherichia coli JUHL; [18]): > 128 µg/mL
- MIC (Eschericha coli SS; Table 5): 2 µg/mL (≈ 2.91 µM)
- MIC [6, 19]: 2 µg/mL (≈ 2.91 µM)
- MIC [7, 20]: 2 µg/mL (≈ 2.91 µM)
- MIC [8, 21]: 0.25 µg/mL (≈ 0.363 µM)

Compound: CC[C@H]1OC(=O)[C@H](C)[C@@H](O[C@H]2C[C@@](C)(OC)[C@@H](O)[C@H](C)O2)[C@H](C)[C@@H](O[C@@H]2O[C@H](C)C[C@H](N(C)C)[C@H]2O)[C@@H](C)C[C@@H](C)C(=O)[C@H](C)[C@@H](O)[C@]1(C)O [6-Deoxyerythromycin A]
- ED50 ([9]; Staphylococcus aureus, 10649, 144 h, oral, 1 and 5 hours post-infection, intraperitoneal inoculum 100 times LD50, mortality on sixth day): 90.8 mg/kg
- ED50 ([10]; C203, 144 h, oral, 1 and 5 hours post-infection, intraperitoneal inoculum 100 times LD50, mortality on sixth day): 32.4 mg/kg
- ED50 ([11]; Streptococcus pneumoniae, 6303, 144 h, oral, 1 and 5 hours post-infection, intraperitoneal inoculum 100 times LD50, mortality on sixth day): 24.9 mg/kg
- remaining at 4 h (physchem): > 50%
- remaining at 8 h (physchem): ~40%
- effectiveness compared with erythromycin A [12]: as effective as erythromycin A
- MIC [1, 22]: 0.5 µg/mL (≈ 0.696 µM)
- MIC [2, 23]: 0.06 µg/mL (≈ 0.0836 µM)
- MIC [3, 24]: 0.25 µg/mL (≈ 0.348 µM)
- MIC [4, 25]: 1 µg/mL (≈ 1.39 µM)
- MIC [5, 26]: 0.12 µg/mL (≈ 0.167 µM)
- MIC (Escherichia coli JUHL; [27]): > 128 µg/mL
- MIC (Eschericha coli SS; Table 4): 2 µg/mL (≈ 2.79 µM)
- MIC [6, 28]: 1 µg/mL (≈ 1.39 µM)
- MIC [7, 29]: 1 µg/mL (≈ 1.39 µM)
- MIC [8, 30]: 0.25 µg/mL (≈ 0.348 µM)

Compound: CC[C@H]1OC(=O)[C@H](C)[C@@H](O[C@H]2C[C@@](C)(O)[C@@H](O)[C@H](C)O2)[C@H](C)[C@@H](O[C@@H]2O[C@H](C)C[C@H](N(C)C)[C@H]2O)[C@@H](C)C[C@@H](C)C(=O)[C@H](C)[C@@H](O)[C@]1(C)O [6-Deoxyerythromycin C]
- MIC [1, 22]: 4 µg/mL (≈ 5.68 µM)
- MIC [2, 23]: 0.25 µg/mL (≈ 0.355 µM)
- MIC [3, 24]: 0.25 µg/mL (≈ 0.355 µM)
- MIC [4, 25]: 2 µg/mL (≈ 2.84 µM)
- MIC [5, 26]: 0.25 µg/mL (≈ 0.355 µM)
- MIC (Escherichia coli JUHL; [27]): > 128 µg/mL
- MIC (Eschericha coli SS; Table 4): 16 µg/mL (≈ 22.7 µM)
- MIC [6, 28]: 2 µg/mL (≈ 2.84 µM)
- MIC [7, 29]: 4 µg/mL (≈ 5.68 µM)
- MIC [8, 30]: 0.5 µg/mL (≈ 0.71 µM)

Compound: CC[C@H]1OC(=O)[C@H](C)[C@@H](O[C@H]2C[C@@](C)(OC)[C@@H](O)[C@H](C)O2)[C@H](C)[C@@H](O[C@@H]2O[C@H](C)C[C@H](N(C)C)[C@H]2O)[C@](C)(O)C[C@@H](C)C(=O)[C@H](C)[C@@H](O)[C@]1(C)O [Erythromycin A, reference compound]
- ED50 ([9]; Staphylococcus aureus, 10649, po, 144 h): 120 mg/kg
- ED50 ([10]; C203, po, 144 h): 54.5 mg/kg
- ED50 ([11]; Streptococcus pneumoniae, 6303, po, 144 h): 24.8 mg/kg
- remaining at 2 min (physchem): < 10%
- MIC ([1]; CMX553, read-out: MIC value, Table 4, brain heart infusion broth): 0.25 µg/mL (≈ 0.341 µM)
- MIC ([1]; CMX553, read-out: MIC value, Table 5, brain heart infusion broth): 0.12 µg/mL (≈ 0.164 µM)
- MIC ([2]; ATCC9341, read-out: MIC value, Table 4, brain heart infusion broth): 0.03 µg/mL (≈ 0.0409 µM)
- MIC ([2]; ATCC9341, read-out: MIC value, Table 5, brain heart infusion broth): 0.015 µg/mL (≈ 0.0204 µM)
- MIC ([3]; ATCC8043, read-out: MIC value, Table 4, brain heart infusion broth): 0.12 µg/mL (≈ 0.164 µM)
- MIC ([3]; ATCC8043, read-out: MIC value, Table 5, brain heart infusion broth): 0.06 µg/mL (≈ 0.0818 µM)
- MIC ([4]; NCTC10649, read-out: MIC value, Table 4, brain heart infusion broth): 0.25 µg/mL (≈ 0.341 µM)
- MIC ([4]; NCTC10649, read-out: MIC value, Table 5, brain heart infusion broth): 0.12 µg/mL (≈ 0.164 µM)
- MIC ([5]; CMX508, read-out: MIC value, Table 4, brain heart infusion broth): 0.06 µg/mL (≈ 0.0818 µM)
- MIC ([5]; CMX508, read-out: MIC value, Table 5, brain heart infusion broth): 0.03 µg/mL (≈ 0.0409 µM)
- MIC (Escherichia coli JUHL; [27]): 64 µg/mL (≈ 87.2 µM)
- MIC (Escherichia coli JUHL; [18]): 32 µg/mL (≈ 43.6 µM)
- MIC (Eschericha coli SS; Table 4): 1 µg/mL (≈ 1.36 µM)
- MIC value (Eschericha coli SS; Table 5): 1 µg/mL (≈ 1.36 µM)
- MIC ([6]; read-out: MIC value, Table 4, brain heart infusion broth): 0.25 µg/mL (≈ 0.341 µM)
- MIC ([6]; read-out: MIC value, Table 5, brain heart infusion broth): 0.12 µg/mL (≈ 0.164 µM)
- MIC ([7]; Staphylococcus, 3519, read-out: MIC value, Table 4): 0.5 µg/mL (≈ 0.681 µM)
- MIC ([7]; Staphylococcus, 3519, read-out: MIC value, Table 5): 0.12 µg/mL (≈ 0.164 µM)
- MIC ([8]; EES61, read-out: MIC value, Table 4, brain heart infusion broth): 0.03 µg/mL (≈ 0.0409 µM)
- MIC ([8]; EES61, read-out: MIC value, Table 5, brain heart infusion broth): 0.015 µg/mL (≈ 0.0204 µM)

Further lines, results first:

- MIC [1, 13]: 1 µg/mL (≈ 1.42 µM)
- MIC [2, 14]: 0.12 µg/mL (≈ 0.171 µM)
- MIC [3, 15]: 0.5 µg/mL (≈ 0.712 µM)
- MIC [4, 16]: 1 µg/mL (≈ 1.42 µM)
- MIC [5, 17]: 0.25 µg/mL (≈ 0.356 µM)
- MIC (Escherichia coli JUHL; [18]): > 128 µg/mL
- MIC (Eschericha coli SS; Table 5): 4 µg/mL (≈ 5.7 µM)
- MIC [6, 19]: 1 µg/mL (≈ 1.42 µM)
- MIC [7, 20]: 1 µg/mL (≈ 1.42 µM)
- MIC [8, 21]: 0.12 µg/mL (≈ 0.171 µM)
Compound: CC[C@H]1OC(=O)[C@H](C)[C@@H](O[C@H]2C[C@@](C)(OC)[C@@H](O)[C@H](C)O2)[C@H](C)[C@@H](O[C@@H]2O[C@H](C)C[C@H](N(C)C)[C@H]2O)[C@@H](C)C[C@@H](C)C(=O)[C@H](C)[C@@H](O)[C@H]1C [6-Deoxyerythromycin B]

- MIC [1, 13]: 0.25 µg/mL (≈ 0.348 µM)
- MIC [2, 14]: 0.03 µg/mL (≈ 0.0418 µM)
- MIC [3, 15]: 0.12 µg/mL (≈ 0.167 µM)
- MIC [4, 16]: 0.25 µg/mL (≈ 0.348 µM)
- MIC [5, 17]: 0.03 µg/mL (≈ 0.0418 µM)
- MIC (Escherichia coli JUHL; [18]): 32 µg/mL (≈ 44.6 µM)
- MIC (Eschericha coli SS; Table 5): 2 µg/mL (≈ 2.79 µM)
- MIC [6, 19]: 0.25 µg/mL (≈ 0.348 µM)
- MIC [7, 20]: 0.25 µg/mL (≈ 0.348 µM)
- MIC [8, 21]: 0.03 µg/mL (≈ 0.0418 µM)
Compound: CC[C@H]1OC(=O)[C@H](C)[C@@H](O[C@H]2C[C@@](C)(OC)[C@@H](O)[C@H](C)O2)[C@H](C)[C@@H](O[C@@H]2O[C@H](C)C[C@H](N(C)C)[C@H]2O)[C@](C)(O)C[C@@H](C)C(=O)[C@H](C)[C@@H](O)[C@H]1C [Erythromycin B, reference compound]
